From patent publication US11413278B2, “Compounds and methods for promoting stress resistance” (priority 2015, dated 2022)
Where two headings read alike, the source gives them in different places.

Experiments:
[1] = system: WI-38 cells; assay: MMS resistance assay; type: cell-based, human; conditions: for fold induction at 10 µM: Homo sapiens, 12 h, normalized ATP measurement
Summary of the method: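 WI-38 cells were given compounds at five final concentrations (0.25–20 μM) in triplicate, followed by cadmium or MMS for 12 h. For MMS, medium was switched from OptiMEM+10% FBS to serum-free DMEM+2% BSA when compounds were added, 24 h before stressor. Two independent assays were run, analysed by global variance t-test.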

[2] = system: C. elegans; assay: C. elegans lifespan assays (liquid and plate); type: in vivo, Caenorhabditis elegans; conditions: for ILS at 60 µM / ILS at 66 µM: Caenorhabditis elegans; for O = Life span- extending scores in worms: score scale 0 to 2, 4 to 6 independent trials; for M = Lifespan-extending scores in worms: summary score
[3] = target: T1, human PARP1 (Homo sapiens, UniProt P09874); assay: PARP inhibitor assay (HT Fluorescent Homogeneous PARP Inhibition Assay Kit); type: biochemical; conditions: score
T1 construct: purchased Trevigen
T1 sequence (P09874 whole entry): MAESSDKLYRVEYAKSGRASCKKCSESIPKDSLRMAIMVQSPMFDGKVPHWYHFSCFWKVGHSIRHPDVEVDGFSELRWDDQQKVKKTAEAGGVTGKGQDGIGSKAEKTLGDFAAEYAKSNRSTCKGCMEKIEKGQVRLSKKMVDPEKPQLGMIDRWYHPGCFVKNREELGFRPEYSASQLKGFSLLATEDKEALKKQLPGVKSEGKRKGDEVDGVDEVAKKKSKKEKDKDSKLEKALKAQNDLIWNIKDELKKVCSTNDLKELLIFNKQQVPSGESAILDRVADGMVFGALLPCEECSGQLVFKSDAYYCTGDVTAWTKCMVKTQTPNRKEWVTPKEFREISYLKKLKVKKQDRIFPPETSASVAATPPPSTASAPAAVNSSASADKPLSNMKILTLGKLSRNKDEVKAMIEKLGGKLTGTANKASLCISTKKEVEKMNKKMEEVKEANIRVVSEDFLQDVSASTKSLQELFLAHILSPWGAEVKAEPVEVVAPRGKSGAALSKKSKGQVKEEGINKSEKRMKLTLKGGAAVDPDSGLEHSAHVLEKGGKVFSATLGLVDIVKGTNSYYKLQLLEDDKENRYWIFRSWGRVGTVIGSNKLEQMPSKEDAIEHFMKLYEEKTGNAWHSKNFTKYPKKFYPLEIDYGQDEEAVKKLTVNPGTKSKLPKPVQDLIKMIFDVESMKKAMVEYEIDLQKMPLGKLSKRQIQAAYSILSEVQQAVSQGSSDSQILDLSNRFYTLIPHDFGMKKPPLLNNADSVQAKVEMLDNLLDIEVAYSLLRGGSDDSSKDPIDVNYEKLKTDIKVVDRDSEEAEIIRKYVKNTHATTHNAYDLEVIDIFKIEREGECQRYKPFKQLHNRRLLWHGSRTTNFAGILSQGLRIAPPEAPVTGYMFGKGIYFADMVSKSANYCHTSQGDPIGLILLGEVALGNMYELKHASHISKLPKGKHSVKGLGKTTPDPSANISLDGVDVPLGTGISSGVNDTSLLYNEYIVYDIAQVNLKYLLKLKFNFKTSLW
Summary of the method: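 Human PARP1 with NAD and activated DNA, compounds at 10 μM final, 30 min at room temperature in dark. Resazurin/diaphorase cycling mix then added for 1 hr in dark before stop buffer; fluorescent homogeneous kit read-out.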

[4] = system: WI-38 cells; conditions: for No H2O2 stress treatment, at 10 uM (fold change): normalized ATP measurement; for Assay 1: H2O2-resistant: YES/NO, if NO, possibly due to repeated freezing/thawing of stocks
[5] = system: PC12 cells expressing poly(Q)103-Htt-EGFP; assay: Poly(Q) toxicity & viability analysis (cellular model of Huntington's disease); type: cell-based, rat; conditions: for M = Huntington's poly-Q toxicity attenuation: score; for K = Huntington's poly-Q toxicity attenuation: summary score
Summary of the method: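 PC12 cells stably carrying inducible poly(Q)103-Htt-EGFP, whose induced expression causes aggregation and toxicity. Viability read 48 hrs later as ATP content by CellTiter-Glo.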

[6] = system: phosphorylated γH2A.X and TP53BP1; assay: DNA damage marker analysis (immuno-staining); conditions: for activity at 10 µM: Homo sapiens, WI-38, 24 h; for P = Potential DNA-damaging / R = Potential DNA damaging: human, 24 h
Summary of the method: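 WI-38 cells were cultured 24 h, then treated with compounds for 24 h; H2O2 (700 μM, 3 h) and doxorubicin (300 nM, 24 h) served as DNA-damage controls. After fixation, cells were immunostained for phospho-γH2A.X (Ser-139) and phospho-TP53BP1 (Ser-1778), counterstained with DAPI, and imaged by automated high-content microscopy.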

[7] = score in summary of 38 core set hits
[8] = in liquid, wild type, with FuDR, 1.0 × 10^9 bacteria/ml, read-out: relative change of mean lifespan vs control, Trial 1
[9] = in liquid, wild type, with FuDR, 2.5 × 10^9 bacteria/ml, read-out: relative change of mean lifespan vs control, Trial 2
[10] = on plate, CF512 temperature-sensitive sterile animals, without FuDR, 2.0 × 10^10 bacteria/ml, read-out: relative change of mean lifespan vs control, Trial 3
[11] = Assay 2(z), 1.0 × 10^9 bacteria/ml, wild type + FuDR (2012 July), read-out: Lifespan assay in liquid
[12] = Assay 3(aa), 2.5 × 10^9 bacteria/ml, wild type + FuDR, read-out: Lifespan assay in liquid
[13] = Assay 4(ab), 2.0 × 10^10 bacteria/ml, CF512 worms, no FuDR, read-out: Lifespan assay on plates
[14] = WI-38 cells, 10 μM, (*) = compromised ability to protect cells from H2O2, could be due to stability issue
[15] = asterisks indicate the loss of the ability to protect cells from H2O2 over time
[16] = read-out: Est. ED50, dose response 0.6-20 μM, H2O2-resistance
[17] = read-out: Experiment 1, H2A.X-P DNA damage foci staining (no H2O2 stress treatment), at 10 uM
[18] = read-out: Experiment 2, H2A.X-P DNA damage foci staining (no H2O2 stress treatment), at 10 uM
[19] = read-out: Experiment 2, H2A.X-P DNA damage foci staining (under H2O2 stress treatment), at 10 uM
[20] = read-out: Experiment 2, TP53BP1-P DNA damage foci staining (no H2O2 stress treatment), at 10 uM
[21] = read-out: Experiment 2, TP53BP1-P DNA damage foci staining (under H2O2 stress treatment), at 10 uM

Row | SMILES | B = MMS resistant [1, 7] | B = MMS resistant ([1]; summary score) | D = Triple resistant ([1]; summary score) | ILS at 60 µM [2, 8] | ILS at 60 µM [2, 9] | ILS at 60 µM [2, 10] | ILS at 66 µM [2, 11] | ILS at 66 µM [2, 12] | ILS at 66 µM [2, 13] | O = Life span- extending scores in worms [2] | M = Lifespan-extending scores in worms [2] | L = PARP inhibition [3] | H2O2-resistant [4, 14] | No H2O2 stress treatment, at 10 uM (fold change) ([4]; WI-38 cells) | Assay 1: H2O2-resistant [4] | H2O2-resistant [4, 15] | EC50 [4, 16] | M = Huntington's poly-Q toxicity attenuation [5] | K = Huntington's poly-Q toxicity attenuation [5] | activity at 10 µM [6, 17] | other results
1 | O=C(NCc1cccnc1)/C(=C\c1cccc(Oc2ccccc2)c1)S(=O)(=O)c1ccccc1 [Gr-7A] | 0 | 0 | 0 | 40.6% | 16.2% | 13.9% | 40.6% | 16.2% | 13.9% | 2 (2 for observed in more than 2 trials) | 2 (2 for observed in more than 2 trials) | 0 | YES (*) | 0.78 fold change | YES | YES (*) | 58.4 µM | 0 | 0 | 337% | fold induction at 10 µM ([1]; Exp. 1, WI-38 cells, read-out: Exp. 1, under MMS stress treatment, at 10 uM (fold change)): 0.96; fold induction at 10 µM ([1]; Exp. 2, WI-38 cells, read-out: Exp. 2, under MMS stress treatment, at 10 uM (fold change)): 2.21; ILS at 60 µM ([2]; on plate, CF512 temperature-sensitive sterile animals, without FuDR, 1.0 × 10^11 bacteria/ml, read-out: relative change of mean lifespan vs control, Trial 4): 2.7%; ILS at 66 µM ([2]; Assay 5(ac), 1.0 × 10^11 bacteria/ml, CF512 worms, no FuDR, read-out: Lifespan assay on plates): 2.7%; Extension of C. elegans' lifespan (qualitative) ([2]; in at least 3 to 4 trials, group range ~10% to ~50%): could extend animal's lifespan; EC50 ([4]; derived from dose response curves, 0.6-20 uM, H2O2-resistance of WI-38 cells): 16.1 µM; activity at 10 µM [6, 18]: 246%; activity at 10 µM [6, 19]: 113%; activity at 10 µM [6, 20]: 363%; activity at 10 µM [6, 21]: 516%; P = Potential DNA-damaging [6]: 0; R = Potential DNA damaging [6]: 0
2 | CNC(=O)/C(C#N)=C/c1c(Oc2ccc(C(C)(C)C)cc2)nc2ccccn2c1=O [Gr-5D] | 0 | 1 | 2 | 29.5% | 5.8% | -5.3% | 29.5% | 5.8% | -5.3% | 0 | 0 | 0 | YES (*) | 1.14 fold change | YES | YES (*) | 18.7 µM | 0 | 0 | 94.1% | Assay 3: MMS-resistant ([1]; YES/NO, * indicates partial): YES; Assay 5: Triple resistant ([1]; YES/NO, H2O2, cadmium and MMS): YES; activity at 10 µM [6, 18]: 75%; activity at 10 µM [6, 19]: 112%; activity at 10 µM [6, 20]: 145%; activity at 10 µM [6, 21]: 480%; P = Potential DNA-damaging [6]: 0; R = Potential DNA damaging [6]: 0
